This note sets out measurements from article PMC7026418, “The kinase polypharmacology landscape of clinical PARP inhibitors” (Scientific Reports, 2020).

Each structure is given as a SMILES string. Like-named read-outs stand apart in the source and are kept apart here.

In one assay the target is T1, ASK1 (Homo sapiens, UniProt Q99683).
T1 construct: gene MAP3K5
T1 sequence (Q99683 1-1374): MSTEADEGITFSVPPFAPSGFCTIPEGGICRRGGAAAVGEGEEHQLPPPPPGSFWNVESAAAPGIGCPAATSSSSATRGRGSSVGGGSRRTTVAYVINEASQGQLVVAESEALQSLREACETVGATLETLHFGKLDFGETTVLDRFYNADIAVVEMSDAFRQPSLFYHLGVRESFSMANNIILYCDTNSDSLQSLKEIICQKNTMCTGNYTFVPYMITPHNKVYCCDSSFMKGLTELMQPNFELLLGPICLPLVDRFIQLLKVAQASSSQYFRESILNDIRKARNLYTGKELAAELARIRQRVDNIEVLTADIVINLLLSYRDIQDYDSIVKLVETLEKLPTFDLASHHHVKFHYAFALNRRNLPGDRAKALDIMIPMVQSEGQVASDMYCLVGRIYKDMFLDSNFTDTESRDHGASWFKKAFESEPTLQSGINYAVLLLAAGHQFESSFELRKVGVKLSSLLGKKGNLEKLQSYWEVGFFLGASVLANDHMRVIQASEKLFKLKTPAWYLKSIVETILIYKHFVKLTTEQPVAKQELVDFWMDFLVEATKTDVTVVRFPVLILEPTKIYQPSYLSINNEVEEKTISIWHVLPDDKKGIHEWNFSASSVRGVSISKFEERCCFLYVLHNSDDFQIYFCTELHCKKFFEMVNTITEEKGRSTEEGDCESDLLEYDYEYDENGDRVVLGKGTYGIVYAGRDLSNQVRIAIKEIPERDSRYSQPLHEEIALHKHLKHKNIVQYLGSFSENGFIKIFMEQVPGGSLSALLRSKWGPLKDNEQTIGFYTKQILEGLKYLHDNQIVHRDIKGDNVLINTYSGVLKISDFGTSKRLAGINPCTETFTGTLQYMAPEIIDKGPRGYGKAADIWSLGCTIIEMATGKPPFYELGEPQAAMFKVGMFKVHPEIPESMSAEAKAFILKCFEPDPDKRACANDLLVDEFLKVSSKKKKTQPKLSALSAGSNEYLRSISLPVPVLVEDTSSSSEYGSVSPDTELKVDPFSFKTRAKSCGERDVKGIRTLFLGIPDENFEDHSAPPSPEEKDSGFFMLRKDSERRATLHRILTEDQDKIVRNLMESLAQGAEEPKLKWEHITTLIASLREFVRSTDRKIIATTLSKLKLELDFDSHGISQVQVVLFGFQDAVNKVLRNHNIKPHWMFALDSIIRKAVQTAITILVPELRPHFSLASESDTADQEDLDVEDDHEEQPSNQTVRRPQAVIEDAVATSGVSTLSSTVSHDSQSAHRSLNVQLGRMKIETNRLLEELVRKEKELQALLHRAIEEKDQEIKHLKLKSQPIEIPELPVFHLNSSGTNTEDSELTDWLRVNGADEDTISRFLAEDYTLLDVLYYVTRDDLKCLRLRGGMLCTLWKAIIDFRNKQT
The assay is described as follows: biochemical. Details: DiscoveRx KINOMEscan active site-directed competition binding; percent of control kinase bound to immobilised ligand.

Another assay concerns the target T2, EPHA3 (Homo sapiens, UniProt P29320).
T2 sequence (P29320 1-983): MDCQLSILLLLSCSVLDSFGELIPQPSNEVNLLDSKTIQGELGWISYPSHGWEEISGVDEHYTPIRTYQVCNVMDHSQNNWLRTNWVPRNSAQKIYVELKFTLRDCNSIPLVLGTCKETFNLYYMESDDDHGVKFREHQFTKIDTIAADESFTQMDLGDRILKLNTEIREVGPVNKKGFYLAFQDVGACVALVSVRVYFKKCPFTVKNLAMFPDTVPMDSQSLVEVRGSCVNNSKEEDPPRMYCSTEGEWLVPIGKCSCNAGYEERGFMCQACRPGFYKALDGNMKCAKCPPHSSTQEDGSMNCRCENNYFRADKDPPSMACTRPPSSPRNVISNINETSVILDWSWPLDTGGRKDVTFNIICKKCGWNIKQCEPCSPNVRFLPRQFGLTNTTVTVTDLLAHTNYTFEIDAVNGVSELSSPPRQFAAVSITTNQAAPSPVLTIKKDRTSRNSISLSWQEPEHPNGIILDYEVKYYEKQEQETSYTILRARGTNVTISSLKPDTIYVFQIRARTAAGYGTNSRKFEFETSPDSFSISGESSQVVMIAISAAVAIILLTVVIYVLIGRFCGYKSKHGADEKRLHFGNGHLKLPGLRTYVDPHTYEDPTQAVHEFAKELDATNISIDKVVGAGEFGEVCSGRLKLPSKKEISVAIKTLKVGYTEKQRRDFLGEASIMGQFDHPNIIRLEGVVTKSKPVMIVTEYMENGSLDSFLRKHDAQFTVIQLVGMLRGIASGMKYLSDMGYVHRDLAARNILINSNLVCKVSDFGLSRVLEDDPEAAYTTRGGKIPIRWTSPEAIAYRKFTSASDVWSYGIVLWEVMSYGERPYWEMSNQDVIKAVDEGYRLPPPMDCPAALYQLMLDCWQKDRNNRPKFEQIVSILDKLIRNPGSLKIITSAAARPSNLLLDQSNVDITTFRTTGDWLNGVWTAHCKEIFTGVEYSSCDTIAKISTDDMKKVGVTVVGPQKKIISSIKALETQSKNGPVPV
Put plainly: biochemical. Details: DiscoveRx KINOMEscan active site-directed competition binding; percent of control kinase bound to immobilised ligand.

Where [1] appears, read: read-out: Niraparib (MK-4827) / %Ctrl @ 10000nM.
Where [2] appears, read: read-out: Talazoparib (BMN 673) / %Ctrl @ 10000nM.
[3] abbreviates: read-out: Rucaparib / %Ctrl @ 10000nM, binding competition, % of control.
Where [4] appears, read: read-out: Olaparib / %Ctrl @ 10000nM.

As to `NC(=O)c1cccc2cn(-c3ccc([C@@H]4CCCNC4)cc3)nc12` [Niraparib], the results for the percent of control binding at 10 µM on ASK1 (setting [1]) and on EPHA3 (setting [1]) were 90% and 81%, respectively.
Turning to `Cn1ncnc1[C@H]1c2n[nH]c(=O)c3cc(F)cc(c23)N[C@@H]1c1ccc(F)cc1` [Talazoparib], the percent of control binding at 10 µM on ASK1 (setting [2]) amounted to 93%; on EPHA3 (setting [2]), 100%.
In the case of `CNCc1ccc(-c2[nH]c3cc(F)cc4c3c2CCNC4=O)cc1` [Rucaparib], the percent of control binding at 10 µM on ASK1 (setting [3]) is 92%; at EPHA3 (setting [3]) it was 88%.
With `O=C(c1cc(Cc2n[nH]c(=O)c3ccccc23)ccc1F)N1CCN(C(=O)C2CC2)CC1` [Olaparib], the percent of control binding at 10 µM was found to be 94% at ASK1 (setting [4]) and 100% at EPHA3 (setting [4]).
